Measurements reported in patent US12565659B2, “Recombinant lac polynucleotides and uses thereof to increase production of C-lignin in plants” (UNIVERSITY OF NORTH TEXAS, priority 2020, dated 2026).
Marks after values point to notes of the source that are not given here.

System: Recombinant ChLAC8
Test: Laccase activity assay and enzyme kinetics of recombinant ChLAC8 with monolignol substrates
Type: biochemical, Cleome hassleriana
Settings: for oxidation of monolignol by ChLAC8 (decrease in substrate by HPLC): 200 μM substrate, 30 min, 25° C.; for dimers in reaction products (LC-MS/MS) / trimers in reaction products (LC-MS/MS): reaction with ChLAC8; for Kcat / Km / Vmax: recombinant ChLAC8, substrate 25 to 800 μM, pH 6.8, 25° C.
Method: The open reading frame (ORF) of ChLAC8 (ChLAC8X1, XM_010555066.1) was amplified with the primers listed in Wang Supp. Table 4, ligated into the pENTR/D-TOPO vector (Invitrogen), and subcloned into pDEST17 fused with a 6× histidine tag at the N-terminus via Gateway LR recombination reaction (Invitrogen). The resulting vector (pDEST17-ChLAC8) was transformed into E. coli Rosetta (DE3) (Novagen) for protein expression. The transgenic E. coli strain was cultured in LB medium at 37° C. until OD600=0.4-0.6 and then supplemented with 0.5 mM isopropyl-β-D-thiogalactoside (IPTG) to induce the expression of ChLAC8 at 16° C. for 20 h. After induction, cell cultures were harvested by centrifugation at 10,000×g for 5 min at 4° C., and the resulting pellets were used for ChLAC8 protein purification via Ni-NTA resin (Thermo Scientific) according to the manufacturer's manual. The eluted protein was further desalted into 50 mM potassium phosphate buffer (pH 6.8) using a 30 kDa cut-off Amicon Ultra centrifugal filter (Millipore). The purity of recombinant ChLAC8 was examined by SDS-PAGE and the protein concentration was quantified by Bradford assays.
Laccase activity assays were performed in a 100 μL reaction mixture consisting of 50 mM potassium phosphate buffer (pH 6.8), 10-20 μg of recombinant ChLAC8, and 200 μM monolignol substrate (caffeyl alcohol, coniferyl alcohol or sinapyl alcohol). The reactions were incubated at 25° C. for 30 min and terminated by adding 100 μL of methanol. The reaction products were injected into an HPLC or LC-MS/MS system for analysis as described below. The decrease in the level of the substrate was measured to calculate the enzyme activity. To determine kinetic parameters, ChLAC8 was incubated with different concentrations of caffeyl alcohol or sinapyl alcohol in a range from 25 to 800 μM. The enzyme assays were performed in triplicate at each substrate concentration, and the Vmax and Km values were calculated by Graphpad Prism 8 software with nonlinear regression analysis.
The reaction products were analyzed on an Agilent 1260 HPLC system equipped with a Luna C18(2) reverse-phase column (5 μm particle, 250×4.6 mm, Phenomenex) and separated in a mobile phase consisting of solvent A (1% in phosphoric acid in water) and solvent B (acetonitrile) with the following gradient: 5% B for 5 min, to 33% B in 25 min, to 45% B in 5 min, to 95% B in 5 min, keep at 95% B for 5 min, back to 5% B in 5 min.
LC-MS/MS analysis was performed using an Agilent 1290 Infinity II liquid chromatography system coupled to an Agilent 6400 Series Triple Quadrupole System with electrospray ionization source in negative ionization mode. A reverse phase ZORBAX RR Eclipse Plus C18, 95 Å, 4.6×250 mm, 5 μm (Agilent) was used for separation. The gradient for HPLC separation was 0.1% (v/v) formic acid in water (A) and 0.1% (v/v) formic acid in acetonitrile (B) with the following solvent gradient: 5% B for 5 min, to 40% B in 30 min, to 95% B in 5 min, 95% B for 5 min, to 5% B in 1 min. The total LC-MS/MS run was 46 min with a flow rate of 1.0 mL/min. Injection volume was 10 μL. MS data were recorded in the range of m/z 100-700 (Perna et al., 2018).

SMILES | oxidation of monolignol by ChLAC8 (decrease in substrate by HPLC) | dimers in reaction products (LC-MS/MS) | trimers in reaction products (LC-MS/MS) | Km value for caffeyl alcohol relative to that for sinapyl alcohol (recombinant ChLAC8) [fold] | Kcat | Km [µM] | Vmax [pKat mg^−1]
COc1cc(/C=C/CO)ccc1O [Coniferyl alcohol, coniferyl alcohol] | not | No dimers were detected | – | – | – | – | –
OC/C=C/c1ccc(O)c(O)c1 [Caffeyl alcohol, caffeyl alcohol] | could oxidize | consistent with the masses of dimers | trimers were observed | ~3.5 | 0.019 ± 0.003* sec^−1 | 210 ± 90.6 | 284.4 ± 50.4
COc1cc(/C=C/CO)cc(OC)c1O [Sinapyl alcohol, sinapyl alcohol] | could oxidize | consistent with the masses of dimers | No trimers were detected | – | 0.013 ± 0.001 s⁻¹ | 60.2 ± 16.7 | 192.0 ± 12.8
